How the values were obtained:
SOD = SOD activity in skin of D-galactose-injected mice; format: in vivo, Kunming mice; conditions: end of the trial (14th week), 100 mg/kg each s.c. once daily for 6 weeks, compared to non-supplementation group, FIG. 5
Procedure: (§1) Six-week-old, male, Kunming mice (n=40), weighed about 30±2 g, were obtained from Cavens Lab Animal (Changzhou, China) and housed in a controlled room (25±2° C., 60% relative humidity, 12 h light/dark cycle) with free access to water and standard laboratory diet. After an acclimation period (1 week), mice were randomly divided into four groups. Each mouse's back skin was chosen as the experimental observation area, a razor was used to shave off the back hair. 5% sodium sulfide solution was applied to the back to remove the hair.
(§2) All mice were then injected subcutaneously with same volume of D-galactose (1000 mg/kg), once a day for 8 weeks. During the entire experiment, the daily food intake and weight of each mouse were recorded every day, and the D-galactose injection dose were adjusted according to the weight change.
(§3) The four groups were non-supplement group (Con, Group 1); THC supplement group (100 mg/kg, Group 2); EGT supplement group (100 mg/kg, Group 3); and EGT+THC supplement group (100 mg/kg EGT+100 mg/kg THC, Group 4). Mice in groups 2-4 were injected subcutaneously (s.c.) into their back skins with the corresponding concentration before each major meal once daily for 6 weeks. […]
(§4) Oxidative stress is increased during aging. […] The levels of H2O2, SOD, CAT, GSH, and GSH-Px in the skin were detected with relative kits as reference. […]

AGEs = experiment: Measurement of glycation: BSA incubated with D-ribose, fluorescence of the AGEs; format: biochemical, bovine; conditions: BSA 1 mg/ml + D-ribose 10 mM in PBS, 37° C., 10 days; THC 10 mM and/or EGT 10 mM; λex=380 nm, λem=450 nm; FIG. 1
Procedure: The formulation of glycation products was observed placing together a bovine serum albumin (BSA) and D-ribose in the absence of THC and EGT, and in the presence of THC only, EGT only and THC and EGT combination.
Specifically, a solution of BSA at a concentration of 1 mg/ml dissolved in phosphate-buffered saline (PBS) was incubated at 37° C. for 10 days with D-ribose at a concentration of 10 mM, in the absence of THC and EGT (Group 1), and the presence of THC only (10 mM, Group 2), EGT only (10 mM, Group 3) and the THC (10 mM) and EGT (10 mM) combination (Group 4).
So, the glycation was evaluated by measuring the fluorescence of the AGEs at λem=450 nm emitted by each sample after excitation at λex=380 nm. The inhibition of glycation was visualized by the decrease in fluorescence compared with the samples treated with the sugar alone.

GSH = GSH activity in skin of D-galactose-injected mice; format: in vivo, Kunming mice; conditions: end of the trial (14th week), 100 mg/kg each s.c. once daily for 6 weeks, compared to non-supplementation group, FIG. 7
Procedure: as §1, §2, §3, §4

GSH-Px = GSH-Px activity in skin of D-galactose-injected mice; format: in vivo, Kunming mice; conditions: end of the trial (14th week), 100 mg/kg each s.c. once daily for 6 weeks, compared to non-supplementation group, FIG. 8
Procedure: as §1, §2, §3, §4

CAT = CAT activity in skin of D-galactose-injected mice; format: in vivo, Kunming mice; conditions: end of the trial (14th week), 100 mg/kg each s.c. once daily for 6 weeks, compared to non-supplementation group, FIG. 6
Procedure: as §1, §2, §3, §4

C[N+](C)(C)[C@@H](Cc1c[nH]c(=S)[nH]1)C(=O)[O-] [EGT, ergothioneine]
SOD activity (SOD): significantly improved
percentage inhibition of fluorescence of the AGEs relative to the control (anti-glycation activity) (AGEs): fabulous anti-glycation activity
GSH activity (GSH): significantly improved
GSH-Px activity (GSH-Px): significantly improved
CAT activity (CAT): significantly improved

From patent publication US20260076923A1, “METHOD AND COMPOSITION TO REDUCE OR INHIBIT ADVANCED GLYCATION END-PRODUCTS” (NANJING NUTRABUILDING BIO-TECH CO., LTD., priority 2023, published 2026)
